Measurements published in patent publication US20240277890A1, “ANTIMICROBIAL ARTICLES COMPRISING POLYURETHANE” (Amicoat AS, priority 2021, published 2024).
Converted amounts (≈) assume the structure as drawn.

Columns and labels:
[1] = system: Shigella sp - antibiotic-susceptible clinical isolate; test: MIC microbroth dilution (CLSI); type: cell-based
[2] = system: Propionibacterium acnes- antibiotic-susceptible clinical isolate; test: MIC microbroth dilution (CLSI); type: cell-based; details: P. acnes antibiotic-susceptible
Method: Supplemented Brucella broth (SBB) was used for the anaerobic strains with an inoculum of approximately 10^6 CFU/mL. SBB is a broth consisting of 1% peptone, 0.5% ‘Lab-lemco’, 1% glucose and 0.5% sodium chloride supplemented with 5 μg/L haemin and 1 μg/L vitamin K (both obtained from Sigma Aldrich Ltd.) Yeast and filamentous fungal MIC were performed in MOPS buffered RPMI 1640 medium (MOPS buffer obtained from Sigma Aldrich Ltd., RPMI 1640 obtained from Invitrogen Ltd, Paisley, Scotland). The yeast inocula were in the range 7.5×10^2-4×10^3 CFU/mL and the filamentous fungi approximately 8×10^3-1×10^5 CFU/mL.
MICs were determined as described in Example 2.

[3] = system: Staphylococcus aureus FDA486; test: Murine skin infection model, one day topical treatment; type: in vivo, mice; details: 2% cream; compared to placebo cream, Fucidin ointment 2% and Bactroban cream 2%
Method: The skin of mice was infected with Staphylococcus aureus or Streptococcus pyogenes and subsequently given a total of three treatments at three hourly intervals. Three hours after the last treatment, skin biopsies were collected and the number of colony forming units (CFUs) present in the skin sample was determined. Results are shown in FIGS. 3, 4 and 5 expressed as the number of colony forming units per mouse.

[4] = system: Candida albicans ATCC24433 - reference strain
[5] = system: Candida tropicalis ATCC750 - reference strain
[6] = system: Candida parapsilosis ATCC90018 - reference strain
[7] = system: Trichophyton mentagrophytes - G.R. Micro collection
[8] = system: Trichophyton interdigitale - G.R. Micro collection
[9] = system: Cryptococcus neoformans - G.R. Micro collection
[10] = system: Escherichia coli ATCC25922 - antibiotic-susceptible type strain; details: ATCC25922
[11] = system: Escherichia coli - multi-drug resistant clinical isolate
[12] = system: Klebsiella aerogenes NCTC11228 - antibiotic-susceptible type strain
[13] = system: Enterobacter sp - multi-drug resistant clinical isolate
[14] = system: Pseudomonas aeruginosa ATCC27853 - antibiotic-susceptible type strain; details: ATCC27853
[15] = system: Haemophilus influenzae - β-lactamase positive clinical isolate
[16] = system: Haemophilus influenzae β-lactamase negative ampicillin-resistant clinical isolate
[17] = system: Staphylococcus aureus ATCC 29213 - antibiotic-susceptible control strain; details: ATCC 29213
[18] = system: Staphylococcus aureus ATCC 43300 - methicillin-resistant control strain
[19] = system: Staphylococcus saprophyticus - antibiotic susceptible clinical isolate
[20] = system: Enterococcus faecalis vancomycin-resistant (VanB) clinical isolate
[21] = system: Enterococcus gallinarum vancomycin-resistant (VanC) clinical isolate
[22] = system: Streptococcus pneumoniae - penicillin-susceptible clinical isolate
[23] = system: Corynebacterium jeikeium - multi-drug resistant clinical isolate
[24] = system: EMRSA1 Staphylococcus aureus (MRSA) - SSCmec type 3; details: EMRSA1 - SSCmec type 3
[25] = system: EMRSA15 Staphylococcus aureus (MRSA) - SSCmec type 4; details: EMRSA15 - SSCmec type 4
[26] = system: Streptococcus agalactiae - antibiotic-susceptible clinical isolate
[27] = system: Streptococcus agalactiae - macrolide-resistant clinical isolate
[28] = system: Group G Streptococcus - macrolide-resistant clinical isolate
[29] = system: Streptococcus bovis - antibiotic-susceptible clinical isolate
[30] = system: Staphylococcus aureus, strain ATCC 25923; details: ATCC 25923
[31] = system: Methicillin resistant Staphylococcus aureus (MRSA) strain ATCC 33591; details: ATCC 33591
[32] = system: Methicillin resistant Staphylococcus epidermidis (MRSE) strain ATCC 27626; details: ATCC 27626

CCCCCCNC(=O)[C@H](CCCNC(=N)N)NC(=O)[C@H](Cc1c(C(C)(C)C)[nH]c2c(C(C)(C)C)cc(C(C)(C)C)cc12)NC(=O)[C@@H](N)CCCNC(=N)N [Compound 8] was tested, and the MIC [1] was 4 µg/mL (≈ 5.21 µM), the MIC [2] was 4 µg/mL (≈ 5.21 µM) and the “number of CFUs in skin biopsy” value [3] was “more effective at reducing the number of CFUs than the placebo and fucidin or bactroban”. For the same compound, the MIC [4] was 8 µg/mL (≈ 10.4 µM), the MIC [5] was 4 µg/mL (≈ 5.21 µM) and the MIC [6] was 8 µg/mL (≈ 10.4 µM). It also gave an MIC [7] of 4 µg/mL (≈ 5.21 µM), an MIC [8] of 4 µg/mL (≈ 5.21 µM) and an MIC [9] of 2 µg/mL (≈ 2.6 µM). It also gave an MIC [10] of 4 µg/mL (≈ 5.21 µM), an MIC [11] of 8 µg/mL (≈ 10.4 µM) and an MIC [12] of 8 µg/mL (≈ 10.4 µM). For the same compound, the MIC [13] was 8 µg/mL (≈ 10.4 µM), the MIC [14] was 8 µg/mL (≈ 10.4 µM) and the MIC [15] was 4 µg/mL (≈ 5.21 µM). The MIC [16] was 8 µg/mL (≈ 10.4 µM), the MIC [17] was 4 µg/mL (≈ 5.21 µM) and the MIC [18] was 4 µg/mL (≈ 5.21 µM). It also gave an MIC [19] of 0.5 µg/mL (≈ 0.651 µM), an MIC [20] of 8 µg/mL (≈ 10.4 µM) and an MIC [21] of 4 µg/mL (≈ 5.21 µM). For the same compound, the MIC [22] was 8 µg/mL (≈ 10.4 µM), the MIC [23] was 2 µg/mL (≈ 2.6 µM) and the MIC [24] was 4 µg/mL (≈ 5.21 µM). For the same compound, the MIC [25] was 4 µg/mL (≈ 5.21 µM), the MIC [26] was 8 µg/mL (≈ 10.4 µM) and the MIC [27] was 8 µg/mL (≈ 10.4 µM). For the same compound, the MIC [28] was 8 µg/mL (≈ 10.4 µM), the MIC [29] was 8 µg/mL (≈ 10.4 µM) and the “S. aureus (MIC)” value [30] was 2 µg/mL. The “MRSA (MIC)” value [31] was 2 µg/mL, the “MRSE (MIC)” value [32] was less than 1 µg/mL and the “C. albicans (MIC)” value (C. albicans) was 5 µg/mL. For the same compound, the “P. aeruginosa (MIC)” value (P. aeruginosa) was 5 µg/mL.
